{"source": "ChEMBL document CHEMBL4052645", "about": "“Discovery of potent and efficacious pyrrolopyridazines as dual JAK1/3 inhibitors” (Bioorg Med Chem Lett, 2017)", "key": {"[1]": {"target": "Serine/threonine-protein kinase SIK2 (Homo sapiens) (UniProt Q9H0K1)", "sequence (Q9H0K1 whole entry, looked up, the tested form may be a part)": "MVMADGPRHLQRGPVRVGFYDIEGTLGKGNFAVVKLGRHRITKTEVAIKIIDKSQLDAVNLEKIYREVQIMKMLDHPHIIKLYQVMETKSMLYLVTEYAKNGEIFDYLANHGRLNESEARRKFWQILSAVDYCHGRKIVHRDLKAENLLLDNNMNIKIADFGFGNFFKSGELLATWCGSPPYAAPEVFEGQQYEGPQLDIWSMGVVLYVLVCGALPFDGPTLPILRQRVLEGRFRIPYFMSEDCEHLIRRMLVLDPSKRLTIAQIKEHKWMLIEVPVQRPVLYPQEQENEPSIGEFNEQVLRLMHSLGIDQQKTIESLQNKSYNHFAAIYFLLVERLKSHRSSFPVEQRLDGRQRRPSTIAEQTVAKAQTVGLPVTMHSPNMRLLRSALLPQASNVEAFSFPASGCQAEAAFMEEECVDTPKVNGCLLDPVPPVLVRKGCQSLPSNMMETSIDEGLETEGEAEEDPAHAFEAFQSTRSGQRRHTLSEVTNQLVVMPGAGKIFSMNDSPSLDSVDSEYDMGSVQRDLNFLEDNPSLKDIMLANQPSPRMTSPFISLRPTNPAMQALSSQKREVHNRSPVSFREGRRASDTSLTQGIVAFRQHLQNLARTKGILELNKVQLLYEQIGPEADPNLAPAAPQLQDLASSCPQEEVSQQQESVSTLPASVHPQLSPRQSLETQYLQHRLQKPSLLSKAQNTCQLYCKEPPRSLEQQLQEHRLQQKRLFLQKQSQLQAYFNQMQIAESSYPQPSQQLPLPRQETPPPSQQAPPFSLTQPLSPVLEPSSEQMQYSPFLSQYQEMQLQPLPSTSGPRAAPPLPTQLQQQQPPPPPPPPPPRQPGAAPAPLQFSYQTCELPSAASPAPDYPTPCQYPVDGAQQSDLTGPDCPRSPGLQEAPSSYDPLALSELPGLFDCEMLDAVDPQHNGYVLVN", "assay": "Inhibition of wild-type human full length QIK (M1 to N926 residues) expressed in bacterial expression system assessed as residual activity at 50 nM by Kinomescan method relative to control"}, "[2]": {"target": "Phosphorylase b kinase gamma catalytic chain, skeletal muscle/heart isoform (Homo sapiens) (UniProt Q16816)", "assay": "Inhibition of wild-type human full length PHKG1 (M1 to Y387 residues) expressed in bacterial expression system assessed as residual activity at 50 nM by Kinomescan method relative to control"}, "[3]": {"target": "Ribosomal protein S6 kinase alpha-1 (Homo sapiens) (UniProt Q15418)", "sequence (Q15418 whole entry, the tested form may be a part)": "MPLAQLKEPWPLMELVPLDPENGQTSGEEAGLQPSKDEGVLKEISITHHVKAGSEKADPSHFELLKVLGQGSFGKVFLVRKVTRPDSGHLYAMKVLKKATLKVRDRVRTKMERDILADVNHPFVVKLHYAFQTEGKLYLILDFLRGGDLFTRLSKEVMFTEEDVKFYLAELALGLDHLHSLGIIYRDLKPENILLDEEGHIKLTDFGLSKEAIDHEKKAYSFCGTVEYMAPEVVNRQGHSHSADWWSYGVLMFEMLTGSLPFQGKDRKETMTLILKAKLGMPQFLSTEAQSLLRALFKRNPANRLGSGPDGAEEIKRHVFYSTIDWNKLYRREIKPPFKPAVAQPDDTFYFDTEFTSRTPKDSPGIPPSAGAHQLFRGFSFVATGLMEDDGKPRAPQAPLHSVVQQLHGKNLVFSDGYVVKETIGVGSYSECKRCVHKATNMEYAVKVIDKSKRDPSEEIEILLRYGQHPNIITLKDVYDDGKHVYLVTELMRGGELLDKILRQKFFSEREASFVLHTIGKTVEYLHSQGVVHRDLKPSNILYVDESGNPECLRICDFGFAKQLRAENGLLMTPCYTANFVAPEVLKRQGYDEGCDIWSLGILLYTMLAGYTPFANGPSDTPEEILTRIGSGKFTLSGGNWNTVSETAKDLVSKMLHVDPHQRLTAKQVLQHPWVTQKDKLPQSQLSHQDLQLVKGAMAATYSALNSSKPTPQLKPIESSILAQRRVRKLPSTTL", "assay": "Inhibition of wild-type human partial length N-terminal RSK1 Kinase domain 1 (M1 to E388 residues) expressed in bacterial expression system assessed as residual activity at 50 nM by Kinomescan method relative to control"}, "[4]": {"tested_on": "Phosphatidylinositol 4,5-bisphosphate 3-kinase catalytic subunit alpha isoform (Homo sapiens), P42336 [I800L]", "assay": "Inhibition of human partial length PI3KCA I800L mutant (R108 to N1068 residues) expressed in mammalian expression system assessed as residual activity at 50 nM by Kinomescan method relative to control"}, "[5]": {"target": "Phosphatidylinositol 4-kinase beta (Homo sapiens) (UniProt Q9UBF8)", "sequence (Q9UBF8 2-816 limits assumed)": "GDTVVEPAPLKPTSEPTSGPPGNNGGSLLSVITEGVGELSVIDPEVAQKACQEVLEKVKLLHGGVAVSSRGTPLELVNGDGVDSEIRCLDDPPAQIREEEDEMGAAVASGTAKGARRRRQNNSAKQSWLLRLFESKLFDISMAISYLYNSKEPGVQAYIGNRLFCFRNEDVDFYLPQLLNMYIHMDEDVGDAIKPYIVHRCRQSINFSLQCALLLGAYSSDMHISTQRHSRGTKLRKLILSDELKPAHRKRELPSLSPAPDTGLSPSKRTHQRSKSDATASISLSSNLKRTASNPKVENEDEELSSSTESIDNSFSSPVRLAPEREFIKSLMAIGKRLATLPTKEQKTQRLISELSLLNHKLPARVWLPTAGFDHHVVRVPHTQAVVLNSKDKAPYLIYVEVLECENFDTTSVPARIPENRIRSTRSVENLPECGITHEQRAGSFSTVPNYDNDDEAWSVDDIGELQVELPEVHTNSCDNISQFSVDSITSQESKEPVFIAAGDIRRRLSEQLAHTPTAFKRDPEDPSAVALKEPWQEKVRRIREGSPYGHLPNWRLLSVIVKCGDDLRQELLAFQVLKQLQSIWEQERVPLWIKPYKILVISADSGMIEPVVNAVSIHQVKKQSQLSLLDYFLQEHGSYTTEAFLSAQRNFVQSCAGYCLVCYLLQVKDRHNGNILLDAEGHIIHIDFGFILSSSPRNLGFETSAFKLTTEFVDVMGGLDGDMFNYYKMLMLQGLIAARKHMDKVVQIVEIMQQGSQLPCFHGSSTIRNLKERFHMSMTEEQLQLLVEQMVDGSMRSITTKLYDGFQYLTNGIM", "assay": "Inhibition of wild-type human full length PIK4CB (M1 to M828 residues) expressed in mammalian expression system assessed as residual activity at 50 nM by Kinomescan method relative to control"}, "[6]": {"target": "Serine/threonine-protein kinase NLK (Homo sapiens) (UniProt Q9UBE8)", "assay": "Inhibition of wild-type human full length NLK (M13 to E527 residues) expressed in bacterial expression system assessed as residual activity at 50 nM by Kinomescan method relative to control"}, "[7]": {"target": "Casein kinase II subunit alpha (Homo sapiens) (UniProt P68400)", "assay": "Inhibition of wild-type human full length CK2A1 (M1 to Q391 residues) expressed in mammalian expression system assessed as residual activity at 50 nM by Kinomescan method relative to control"}, "[8]": {"target": "AP2-associated protein kinase 1 (Homo sapiens) (UniProt Q2M2I8)", "assay": "Inhibition of human wild-type AAK1 (G25 to L333 residues) expressed in bacterial expression system assessed as residual activity at 50 nM by Kinomescan method relative to control"}, "[9]": {"target": "cGMP-dependent protein kinase 2 (Homo sapiens) (UniProt Q13237)", "assay": "Inhibition of wild-type human partial length PKG2 (S422 to F762 residues) expressed in mammalian expression system assessed as residual activity at 50 nM by Kinomescan method relative to control"}, "[10]": {"target": "Non-receptor tyrosine-protein kinase TYK2 (Homo sapiens, UniProt P29597)", "assay": "Inhibition of His-tagged TYK2 (unknown origin) after 3 hrs by Caliper assay"}, "[11]": {"target": "BDNF/NT-3 growth factors receptor (Homo sapiens) (UniProt Q16620)", "assay": "Inhibition of wild-type human partial length TRKB (Q547 to G838 residues) expressed in mammalian expression system assessed as residual activity at 50 nM by Kinomescan method relative to control"}, "[12]": {"target": "Serine/threonine-protein kinase SIK1 (Homo sapiens) (UniProt P57059)", "assay": "Inhibition of wild-type human partial length SIK (M1 to Y304 residues) expressed in bacterial expression system assessed as residual activity at 50 nM by Kinomescan method relative to control"}, "[13]": {"target": "Serine/threonine-protein kinase Nek9 (Homo sapiens) (UniProt Q8TD19)", "assay": "Inhibition of wild-type human partial length NEK9 (P32 to R328 residues) expressed in bacterial expression system assessed as residual activity at 50 nM by Kinomescan method relative to control"}, "[14]": {"target": "Serine/threonine-protein kinase pim-2 (Homo sapiens) (UniProt Q9P1W9)", "sequence (Q9P1W9 whole entry, looked up, the tested form may be a part)": "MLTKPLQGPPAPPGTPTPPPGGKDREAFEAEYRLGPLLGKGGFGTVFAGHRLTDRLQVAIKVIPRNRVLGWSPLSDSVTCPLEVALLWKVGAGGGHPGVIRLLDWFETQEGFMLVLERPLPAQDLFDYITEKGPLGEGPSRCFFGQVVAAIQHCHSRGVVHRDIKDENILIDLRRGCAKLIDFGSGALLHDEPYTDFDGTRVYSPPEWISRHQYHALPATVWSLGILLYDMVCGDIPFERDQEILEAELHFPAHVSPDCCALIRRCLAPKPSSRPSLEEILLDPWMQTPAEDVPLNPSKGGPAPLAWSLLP", "assay": "Inhibition of wild-type human partial length PIM2 (M1 to E291 residues) expressed in bacterial expression system assessed as residual activity at 50 nM by Kinomescan method relative to control"}, "[15]": {"target": "STE20-like serine/threonine-protein kinase (Homo sapiens) (UniProt Q9H2G2)", "sequence (Q9H2G2 whole entry, looked up, the tested form may be a part)": "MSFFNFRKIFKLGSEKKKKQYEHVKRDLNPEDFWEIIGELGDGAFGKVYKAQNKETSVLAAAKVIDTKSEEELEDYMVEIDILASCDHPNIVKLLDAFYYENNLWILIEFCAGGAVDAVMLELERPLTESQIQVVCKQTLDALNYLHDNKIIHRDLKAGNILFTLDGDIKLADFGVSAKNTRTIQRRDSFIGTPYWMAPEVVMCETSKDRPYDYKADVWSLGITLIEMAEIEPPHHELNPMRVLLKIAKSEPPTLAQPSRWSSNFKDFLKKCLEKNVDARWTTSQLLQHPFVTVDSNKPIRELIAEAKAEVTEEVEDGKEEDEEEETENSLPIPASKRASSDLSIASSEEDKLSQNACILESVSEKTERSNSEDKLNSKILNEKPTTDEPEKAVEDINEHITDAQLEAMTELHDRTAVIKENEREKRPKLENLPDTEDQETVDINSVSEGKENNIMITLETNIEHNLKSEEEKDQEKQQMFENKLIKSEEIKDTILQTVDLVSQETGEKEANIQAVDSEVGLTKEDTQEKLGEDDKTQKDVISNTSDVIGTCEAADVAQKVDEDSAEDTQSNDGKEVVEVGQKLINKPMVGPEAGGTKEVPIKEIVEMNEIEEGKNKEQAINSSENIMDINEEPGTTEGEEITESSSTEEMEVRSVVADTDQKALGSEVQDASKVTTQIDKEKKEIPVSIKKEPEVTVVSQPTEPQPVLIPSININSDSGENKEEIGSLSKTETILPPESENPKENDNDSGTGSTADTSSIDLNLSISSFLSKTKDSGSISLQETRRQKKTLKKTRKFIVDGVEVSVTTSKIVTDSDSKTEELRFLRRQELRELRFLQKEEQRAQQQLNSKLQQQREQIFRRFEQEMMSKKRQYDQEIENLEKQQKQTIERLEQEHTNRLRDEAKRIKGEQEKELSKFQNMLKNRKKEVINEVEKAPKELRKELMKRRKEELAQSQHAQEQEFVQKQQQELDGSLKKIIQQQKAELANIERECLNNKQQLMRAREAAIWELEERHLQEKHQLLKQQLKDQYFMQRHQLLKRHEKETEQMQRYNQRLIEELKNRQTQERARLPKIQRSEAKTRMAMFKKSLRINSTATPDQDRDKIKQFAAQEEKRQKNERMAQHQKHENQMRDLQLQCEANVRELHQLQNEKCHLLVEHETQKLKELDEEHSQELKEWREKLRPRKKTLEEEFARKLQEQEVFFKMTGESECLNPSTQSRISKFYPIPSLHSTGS", "assay": "Inhibition of wild-type human partial length SLK (S14 to A307 residues) expressed in bacterial expression system assessed as residual activity at 50 nM by Kinomescan method relative to control"}, "[16]": {"target": "Serine/threonine-protein kinase RIO1 (Homo sapiens) (UniProt Q9BRS2)", "assay": "Inhibition of full length human RIOK1 (M1 to K568 residues) expressed in bacterial expression system assessed as residual activity at 50 nM by KINOMEscan assay relative to control"}, "[17]": {"target": "Calcium/calmodulin-dependent protein kinase type II subunit gamma (Homo sapiens) (UniProt Q13555)", "assay": "Inhibition of wild-type human partial length CAMK2G (R9 to A303 residues) expressed in bacterial expression system assessed as residual activity at 50 nM by Kinomescan method relative to control"}, "[18]": {"target": "Receptor-interacting serine/threonine-protein kinase 2 (Homo sapiens) (UniProt O43353)", "sequence (O43353 whole entry, the tested form may be a part)": "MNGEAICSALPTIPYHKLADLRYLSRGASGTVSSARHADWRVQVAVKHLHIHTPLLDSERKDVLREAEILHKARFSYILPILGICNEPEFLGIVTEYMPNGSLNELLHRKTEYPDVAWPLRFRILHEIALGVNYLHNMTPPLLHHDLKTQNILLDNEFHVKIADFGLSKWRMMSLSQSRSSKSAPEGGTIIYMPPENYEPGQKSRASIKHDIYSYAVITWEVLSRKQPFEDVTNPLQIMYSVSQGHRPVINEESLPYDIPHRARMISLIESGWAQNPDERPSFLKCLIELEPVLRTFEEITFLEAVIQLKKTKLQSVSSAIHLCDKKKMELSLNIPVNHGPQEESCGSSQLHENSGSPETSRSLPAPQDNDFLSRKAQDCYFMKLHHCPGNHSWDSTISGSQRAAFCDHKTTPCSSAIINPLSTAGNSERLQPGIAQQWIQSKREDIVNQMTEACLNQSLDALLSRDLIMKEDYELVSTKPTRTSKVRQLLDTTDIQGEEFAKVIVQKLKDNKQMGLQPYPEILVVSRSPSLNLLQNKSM", "assay": "Inhibition of wild-type human partial length RIPK2 (M1 to K310 residues) expressed in bacterial expression system assessed as residual activity at 50 nM by Kinomescan method relative to control"}, "[19]": {"target": "Mitogen-activated protein kinase kinase kinase kinase 2 (Homo sapiens) (UniProt Q12851)", "assay": "Inhibition of human GCK (M1 to G318 residues) expressed in mammalian expression system assessed as residual activity at 50 nM by KINOMEscan assay relative to control"}, "[20]": {"target": "Dual specificity protein kinase CLK4 (Homo sapiens) (UniProt Q9HAZ1)", "sequence (Q9HAZ1 whole entry, looked up, the tested form may be a part)": "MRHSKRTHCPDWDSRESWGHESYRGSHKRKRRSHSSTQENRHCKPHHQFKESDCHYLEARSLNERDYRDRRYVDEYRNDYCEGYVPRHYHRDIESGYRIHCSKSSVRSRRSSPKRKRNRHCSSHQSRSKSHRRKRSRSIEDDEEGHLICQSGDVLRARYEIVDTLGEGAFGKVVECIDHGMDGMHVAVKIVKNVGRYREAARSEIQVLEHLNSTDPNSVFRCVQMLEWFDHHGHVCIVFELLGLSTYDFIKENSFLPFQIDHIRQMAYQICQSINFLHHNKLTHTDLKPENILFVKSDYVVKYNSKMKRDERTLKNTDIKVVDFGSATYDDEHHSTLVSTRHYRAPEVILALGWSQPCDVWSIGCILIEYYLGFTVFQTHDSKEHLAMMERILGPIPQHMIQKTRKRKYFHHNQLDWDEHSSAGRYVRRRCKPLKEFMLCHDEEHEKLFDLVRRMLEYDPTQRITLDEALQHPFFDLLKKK", "assay": "Inhibition of wild-type human partial length CLK4 (R135 to K481 residues) expressed in bacterial expression system assessed as residual activity at 50 nM by Kinomescan method relative to control"}, "[21]": {"target": "Dual specificity protein kinase TTK (Homo sapiens) (UniProt P33981)", "assay": "Inhibition of wild-type human partial length TTK (N505 to V798 residues) expressed in bacterial expression system assessed as residual activity at 50 nM by Kinomescan method relative to control"}, "[22]": {"target": "Aurora kinase A (Homo sapiens) (UniProt O14965)", "assay": "Inhibition of wild-type human partial length AURA (E122 to K401 residues) expressed in mammalian expression system assessed as residual activity at 50 nM by Kinomescan method relative to control"}, "[23]": {"target": "Tyrosine-protein kinase ITK/TSK (Homo sapiens) (UniProt Q08881)", "assay": "Inhibition of wild-type human partial length ITK (R335 to L620 residues) expressed in bacterial expression system assessed as residual activity at 50 nM by Kinomescan method relative to control"}, "[24]": {"target": "Tyrosine-protein kinase Srms (Homo sapiens) (UniProt Q9H3Y6)", "assay": "Inhibition of wild-type human partial length SRMS (L208 to P488 residues) expressed in mammalian expression system assessed as residual activity at 50 nM by Kinomescan method relative to control"}, "[25]": {"target": "Proto-oncogene tyrosine-protein kinase receptor Ret (Homo sapiens) (UniProt P07949)", "assay": "Inhibition of wild-type human partial length RET (E713 to D1014 residues) expressed in bacterial expression system assessed as residual activity at 50 nM by Kinomescan method relative to control"}}, "data": [{"compound": "COc1ccc(-c2cc3c(N[C@@H]4CC[C@](C)(N)C4(C)C)c(C(N)=O)cnn3c2)cn1", "values": [{"measurement": "Activity", "setting": "[1]", "value": 63, "unit": "%"}, {"measurement": "Activity", "setting": "[2]", "value": 100, "unit": "%"}, {"measurement": "Activity", "setting": "[3]", "value": 100, "unit": "%"}, {"measurement": "Activity", "setting": "[4]", "value": 100, "unit": "%"}, {"measurement": "Activity", "setting": "[5]", "value": 100, "unit": "%"}, {"measurement": "Activity", "setting": "[6]", "value": 71, "unit": "%"}, {"measurement": "Activity", "setting": "[7]", "value": 100, "unit": "%"}, {"measurement": "Activity", "setting": "[8]", "value": 73, "unit": "%"}, {"measurement": "Activity", "setting": "[9]", "value": 100, "unit": "%"}, {"measurement": "IC50", "setting": "[10]", "value": 25, "unit": "nM"}, {"measurement": "Activity", "setting": "[11]", "value": 100, "unit": "%"}, {"measurement": "Activity", "setting": "[12]", "value": 96, "unit": "%"}, {"measurement": "Activity", "setting": "[13]", "value": 100, "unit": "%"}, {"measurement": "Activity", "setting": "[14]", "value": 100, "unit": "%"}, {"measurement": "Activity", "setting": "[15]", "value": 94, "unit": "%"}, {"measurement": "Activity", "setting": "[16]", "value": 69, "unit": "%"}, {"measurement": "Activity", "setting": "[17]", "value": 90, "unit": "%"}, {"measurement": "Activity", "setting": "[18]", "value": 100, "unit": "%"}, {"measurement": "Activity", "setting": "[19]", "value": 26, "unit": "%"}, {"measurement": "Activity", "setting": "[20]", "value": 100, "unit": "%"}, {"measurement": "Activity", "setting": "[21]", "value": 81, "unit": "%"}, {"measurement": "Activity", "setting": "[22]", "value": 100, "unit": "%"}, {"measurement": "Activity", "setting": "[23]", "value": 90, "unit": "%"}, {"measurement": "Activity", "setting": "[24]", "value": 94, "unit": "%"}, {"measurement": "Activity", "setting": "[25]", "value": 92, "unit": "%"}]}, {"compound": "CC1(C)[C@H](Nc2c(C(N)=O)cnn3cc(-c4ccccc4)cc23)CC[C@]1(C)N", "values": [{"measurement": "Activity", "setting": "[1]", "value": 36, "unit": "%"}, {"measurement": "Activity", "setting": "[2]", "value": 81, "unit": "%"}, {"measurement": "Activity", "setting": "[3]", "value": 67, "unit": "%"}, {"measurement": "Activity", "setting": "[4]", "value": 100, "unit": "%"}, {"measurement": "Activity", "setting": "[5]", "value": 90, "unit": "%"}, {"measurement": "Activity", "setting": "[6]", "value": 100, "unit": "%"}, {"measurement": "Activity", "setting": "[7]", "value": 56, "unit": "%"}, {"measurement": "Activity", "setting": "[8]", "value": 63, "unit": "%"}, {"measurement": "Activity", "setting": "[9]", "value": 87, "unit": "%"}, {"measurement": "IC50", "setting": "[10]", "value": 7.5, "unit": "nM"}, {"measurement": "Activity", "setting": "[11]", "value": 80, "unit": "%"}, {"measurement": "Activity", "setting": "[12]", "value": 80, "unit": "%"}, {"measurement": "Activity", "setting": "[13]", "value": 100, "unit": "%"}, {"measurement": "Activity", "setting": "[14]", "value": 100, "unit": "%"}, {"measurement": "Activity", "setting": "[15]", "value": 18, "unit": "%"}, {"measurement": "Activity", "setting": "[16]", "value": 14, "unit": "%"}, {"measurement": "Activity", "setting": "[17]", "value": 91, "unit": "%"}, {"measurement": "Activity", "setting": "[18]", "value": 93, "unit": "%"}, {"measurement": "Activity", "setting": "[19]", "value": 3.6, "unit": "%"}, {"measurement": "Activity", "setting": "[20]", "value": 100, "unit": "%"}, {"measurement": "Activity", "setting": "[21]", "value": 100, "unit": "%"}, {"measurement": "Activity", "setting": "[22]", "value": 88, "unit": "%"}, {"measurement": "Activity", "setting": "[23]", "value": 89, "unit": "%"}, {"measurement": "Activity", "setting": "[24]", "value": 64, "unit": "%"}, {"measurement": "Activity", "setting": "[25]", "value": 100, "unit": "%"}]}]}
